{"source": "patent US20110136880A1", "about": "“Latrunculin-Based Macrolides and Their Uses” (priority 2009, published 2011)", "key": {"[1]": {"system": "breast, CNS, colon, lung, melanoma, ovarian, and renal cancer cells", "experiment": "Antiproliferative testing against 60 cell lines (NSC compounds)", "type": "cell-based"}, "MDA-MB-231": {"system": "MDA-MB-231", "experiment": "MTT proliferation assay, MDA-MB-231", "type": "cell-based, human", "excerpt": "(§1) The antiproliferative and anti-invasive activities of compounds 1-14 were quantified using MTT and cell invasion assay kits, respectively. Latrunculin A (compound 1) was used as a positive control in all biological assays, because it is known to be an actin polymerization inhibitor, with cytotoxic, antiproliferative, and anti-invasive activities. The 3-[4,5-dimethylthiazol-2-yl]-2,5-diphenyl tetrazolium bromide (MTT) assay selectively detects living cells in a quantitative, colorimetric fashion, based on a living cell's ability to reduce MTT to an insoluble, purple formazan dye. The MTT assay is routinely used to assess cytotoxicity and proliferation inhibition activities. The antiproliferative activities of compounds 1-14 were measured against two human mammary gland adenocarcinoma cell lines, MCF7 and MDA-MB-231, and against human prostate cancer cells PC-3 at five different doses (0.1, 0.5, 1, 10, and 50 μM). While many of the semisynthetic latrunculins had similar activity levels, some had greater activity than compound 1. […] Although the MDA-MB-231 cells were more resistant than MCF7 against most latrunculin derivatives tested, compound 14 had potent activity against both cell lines.\n(§2) MTT Proliferation Assay. The growth of MCF7, MDA-MB-231, and PC-3 cancer cell lines was measured using an MTT kit (TACS™, TREVIGEN®, Inc.). Exponentially growing cells were plated in a 96-well plate at a density of 8×10^3 cells per well, and allowed to attach for 24 h. Complete growth medium was then replaced with 100 μL of RPMI serum-free medium containing various concentrations (50, 10, 1, 0.5, 0.1 μM) of the particular test compound. Culture continued at 37° C. under 5% CO2. After 72 h of culture, the cells were treated with MTT solution (10 μL/well) at 37° C. for 4 h. The color reaction was stopped by adding solubilization/stop solution (100 μL/well). Incubation continued at 37° C. continued to completely dissolve the formazan dye product. Absorbance of the samples was determined at 570 nm with an ELISA plate reader (BioTek, VT). The number of cells per well was calculated against a standard curve that had been prepared by plating various concentrations of cells, as determined by hemocytometer, at the start of each experiment. IC50 for each compound was calculated using a nonlinear regression curve fit of log concentration versus the number of cells/well, using GraphPad Prism 5.0 (GraphPad Software, La Jolla, Calif.)."}, "PC-3": {"system": "PC-3", "experiment": "MTT proliferation assay, PC-3", "type": "cell-based, human", "excerpt": "as §1, §2"}, "MDA-MB-231 cells": {"system": "MDA-MB-231 cells", "experiment": "Cultrex BME cell invasion assay", "type": "cell-based, human", "experimental": "The anti-invasive activities of compounds 1-14 were measured using a 96 well basement membrane extract (BME) cell invasion assay kit against the highly metastatic MDA-MB-231 cells. This assay employs a simplified Boyden Chamber with a polyethylene terephthalate membrane (8 μm pore size). Cell invasion was quantified using calcein-acetomethylester (calcein-AM). Cells internalize calcein-AM; intracellular esterases then cleave the acetomethylester moiety to generate free calcein. Free calcein fluoresces brightly. This fluorescence may be used to quantify the number of cells that have invaded across the BME. To correlate the anti-invasive activities of the latrunculin A derivatives with their actin-disrupting activities, compounds 1-14 were each tested at non-toxic concentrations. […] Accordingly, all compounds were tested at 0.1, 0.5, and 1.0 μM. Compound 3 killed 17% of MDA-MB-231 cells at 1.0 μM, while the same dose of compound 3 inhibited 95% of MDA-MB-231 cells' invasion. […] The anti-invasive activities of compounds 1-14 are attributed primarily to the inhibition of actin polymerization, not to cell death per se.\nCultrex® Cell Invasion Assay. Anti-invasive activities were measured using Trevigen's Cultrex® Cell Invasion Assay as described in K. Tamilarasan et al., BMC Cell Biol. 2006, 7, 17-30; and P. Borghesani et al., Development. 2002, 6, 1435-1442. About 50 μL of basement membrane extract (BME) coat was added to each well. After incubation for 4 h at 37° C. under 5% CO2, 50,000 MDA-MB-231 cells in 50 μL of serum free RPMI medium were added to each well in the top chamber, along with the test compound at one of several concentrations (0.1, 0.5, 1 μM). About 150 μL of RPMI medium was added to the lower chamber in 10% FBS and penicillin/streptomycin, using fibronectin ([…]) and N-formyl-met-leu-phe (10 nM) as chemoattractants. Cells were allowed to migrate to the lower chamber at 37° C. under 5% CO2. After 24 h, the top and bottom chambers were aspirated and washed with the washing buffer that had been supplied with the kit. About 100 μL of Cell Dissociation Solution/Calcein-AM solution was added to the bottom chamber, and the cells were incubated at 37° C. under CO2 for 1 h. Briefly, the cells internalize calcein-AM, and then the intracellular esterases cleave the AM moiety to generate free calcein. […] The number of cells that had invaded through the BME coat was calculated using a standard curve."}, "pyrene-conjugated actin": {"target": "T1, pyrene-conjugated actin (Oryctolagus cuniculus, UniProt P68135)", "T1 construct": "purchased Cytoskeleton, Denver, Colo", "experiment": "Pyrene actin polymerization assay", "type": "biochemical", "experimental": "An actin polymerization kit was used to assess the direct actin-binding activity of each analogue at two concentrations: 100 nM and 1 μM. This kit is based on the enhanced fluorescence of pyrene-conjugated actin that occurs during polymerization. When pyrene-G-actin (monomer) forms pyrene-F-actin, fluorescence is enhanced. The enhanced fluorescence is used to follow polymerization over time. Table 2 lists activities as the percentage of actin polymerization inhibition, compared to the negative vehicle control (DMSO), along with calculated IC50.\nPyrene-Actin Polymerization Assays. Actin polymerization assays were performed in accordance with the manufacturer's instructions (Cytoskeleton, Denver, Colo.). Briefly, […] final concentration of monomeric actin (1:10 pyrene labeled) was incubated on ice for 10 min with one of various concentrations of one of the latrunculin derivatives. Samples were then equilibrated 10 min in an ELISA plate reader (BioTek, VT), after which polymerization was induced by adding KCl, MgCl2, and ATP. Compounds 1-14 were tested at 0.1, 0.5, 1.0, and 10 μM. The IC50 for each compound was calculated using GraphPad Prism 5.0.\nPyrene-actin polymerization assays. Actin polymerization inhibitory activity is assessed using the Cytoskeleton Actin Polymerization kit (Cytoskeleton, Denver, Colo.). Briefly, […] (final concentration) of monomeric actin (1:10 pyrene labeled) is incubated on ice for 10 min with one of various concentrations of the test latrunculin compound. Samples are equilibrated 10 min in an ELISA plate reader (BioTek, VT), after which polymerization is induced by adding KCl, MgCl2, and ATP. Compounds are tested at 0.1, 0.5, 1.0, and 10 μM. The IC50 for each compound is calculated using GraphPad Prism 5.0."}, "MCF7": {"system": "MCF7", "experiment": "MTT proliferation assay, MCF7", "type": "cell-based, human", "excerpt": "as §1, §2"}, "array of kinases": {"system": "array of kinases", "experiment": "Kinase profiling", "type": "binding", "conditions": "any kinase tested", "experimental": "Latrunculins B and H (compounds 20 and 14, respectively) were tested in a panel of assays including ApoE secretion, anti-angiogenesis, G2/M, Wnt pathway, insulin secretion, and an array of kinase profiling. The G2/M assays include HeLa cell proliferation, apoptosis, DNA content, and condensation, cyclin B, and phosphor-histone H3. […] Alkaline phosphatases may perhaps be a target of the anti-invasive latrunculin 11."}, "[2]": {"system": "microvessel density marker CD31 in endothelial colony forming cells (ECFCs)", "experiment": "Angiogenesis inhibition assay (CD31 in ECFCs)", "type": "cell-based", "experimental": "Effects on Angiogenesis. Angiogenesis inhibition assays were conducted using endothelial colony forming cells (ECFCs). The microvessel density marker CD31 was quantified using confocal laser scanning microscopy and immunohistochemistry."}, "HeLa cells": {"system": "HeLa cells", "experiment": "HeLa cell G2/M assays", "type": "cell-based", "conditions": "less active than compound 11", "excerpt": "This assay measures HeLa cell proliferation, apoptosis, DNA content and condensation, cyclin B, and phosphor-histone H3."}, "[3]": {"system": "alkaline phosphatase in C2C12 cells", "experiment": "Alkaline phosphatase in C2C12 cells (Wnt pathway)", "type": "cell-based", "excerpt": "(§3) Effects on Wnt/β-catenin. […] These two compounds affected both alkaline phosphatase and β-catenin levels in C2C12 cells."}, "[4]": {"system": "alkaline phosphatase in HuADSC cells", "experiment": "Alkaline phosphatase in HuADSC cells", "type": "cell-based"}, "β-catenin in C2C12 cells": {"system": "β-catenin in C2C12 cells", "experiment": "Wnt/β-catenin signaling, β-catenin levels in C2C12 cells", "type": "cell-based", "excerpt": "as §3"}, "[5]": {"system": "prostate cancer cells PC-3M-CT+", "conditions": "100 nM dose; without cytotoxicity; cited from earlier work"}}}
{"molecule": "C/C1=C/C(=O)O[C@@H]2C[C@@H](CC[C@H](C)/C=C\\C=C\\CC1)O[C@@](OCCc1ccccc1)([C@@H]1CSC(=O)N1)C2", "note": "[Compound 3, 17-O-Phenylethyllatrunculin A]", "values": [{"measurement": "number of the 60 cell lines tested with antiproliferative activity", "setting": "[1]; dose of 10 μM", "result": 18}, {"measurement": "log10GI50", "setting": "[1]; five-points dose-response, range over active cell lines", "result": "−7.02 to −7.90"}, {"measurement": "MDA-MB-231 cells killed", "setting": "MDA-MB-231; 1.0 μM", "result": 17, "unit": "%"}, {"measurement": "IC50", "setting": "MDA-MB-231; Homo sapiens, MDA-MB-231, MTT, 72 h, mean ± SEM, read-out: IC50 (μM) MDA-MB-231", "result": "2.71 ± 0.52", "unit": "µM"}, {"measurement": "IC50", "setting": "PC-3; Homo sapiens, PC-3, MTT, 72 h, read-out: IC50 (μM) PC-3", "result": 1.22, "unit": "µM"}, {"measurement": "fold increase in activity against PC-3 versus compound 1", "setting": "PC-3; relative to compound 1", "result": 3.2, "unit": "fold"}, {"measurement": "fold more active against cell invasion than latrunculin A (compound 1)", "setting": "MDA-MB-231 cells; 0.5 μM", "result": 3.3, "unit": "fold"}, {"measurement": "inhibition at 1 µM", "setting": "MDA-MB-231 cells; Homo sapiens, MDA-MB-231, 1.0 μM", "result": 95, "unit": "%"}, {"measurement": "inhibition at 0.1 µM", "setting": "pyrene-conjugated actin; 100 nM, compared to vehicle control (DMSO), read-out: Actin polymerization inhibition (%) 100 nM", "result": 31, "unit": "%"}, {"measurement": "inhibition at 1 µM", "setting": "pyrene-conjugated actin; 1 μM, compared to vehicle control (DMSO), read-out: Actin polymerization inhibition (%) 1 μM", "result": 94, "unit": "%"}, {"measurement": "IC50", "setting": "pyrene-conjugated actin; mean ± SEM, triplicate", "result": "184 ± 48", "unit": "nM"}, {"measurement": "IC50", "setting": "MCF7; Homo sapiens, MCF7, MTT, 72 h, mean ± SEM, read-out: IC50 (μM) MCF7", "result": "0.1 ± 0.07", "unit": "µM"}, {"measurement": "fold increase in activity against MCF7 versus compound 1", "setting": "MCF7; relative to compound 1", "result": 4.8, "unit": "fold"}]}
{"molecule": "C/C1=C/C(=O)O[C@@H]2C[C@@H](CC[C@H](C)/C=C\\CC1)O[C@@](O)([C@@H]1CSC(=O)N1)C2", "note": "[Compound 20, latrunculin B]", "values": [{"measurement": "affinity toward kinases", "setting": "array of kinases", "result": "Neither compound 20 nor compound 14 showed affinity toward any kinase tested"}, {"measurement": "inhibition of CD31 in ECFCs", "setting": "[2]; 2 μM", "result": 100, "unit": "%"}, {"measurement": "inhibition of CD31 in ECFCs", "setting": "[2]; 10 μM", "result": 100, "unit": "%"}, {"measurement": "IC50", "setting": "[2]; read-out: IC50 CD31 in ECFCs", "result": 43, "unit": "nM"}, {"measurement": "activity in G2_M assays compared with nocodazole", "setting": "HeLa cells", "result": "greater activity than did nocodazole"}, {"measurement": "EC50", "setting": "[3]", "result": 91, "unit": "nM"}, {"measurement": "EC50", "setting": "[4]", "result": 141, "unit": "nM"}, {"measurement": "Wnt/β-catenin signaling", "setting": "β-catenin in C2C12 cells", "result": "strongly inhibited"}]}
{"molecule": "latrunculin A 17-O-phenyl carbamate [Compound 18]", "values": [{"measurement": "migration of PC-3M-CT+ cells", "setting": "[5]", "result": "inhibits the migration"}]}
